Reference: patent US11702422B2, “Imidazopyridazines as modulators of IL-17” (Janssen Pharmaceutica NV, priority 2020, dated 2023)
pIC50: −log10 of the molar value.

What was measured:
[1] = target: IL-17A(FLAG-Tagged): IL-17RA(His-Tagged) (Homo sapiens, UniProt Q16552, K93Q); assay: IL-17A(FLAG-Tagged): IL-17RA(His-Tagged) Binding Disruption Eu-HTRF Assay; settings: IL-17A/IL-17RA binding disruption, simple average if tested more than once
In short: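 IC50 comes from a one-site competition fit of the HTRF 665/620 nm ratio. Compound dilutions (2-fold, 22 points) were held 1 h rt with FLAG-tagged IL-17A dimer, then His-tagged IL-17RA plus Eu-cryptate anti-FLAG and D2 anti-His antibodies were added for 2 h rt.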

[2] = test system: IL-17A-induced G-CSF production in human normal keratinocyte (NHK); assay: NHK Assay: IL-17A-induced G-CSF production in human normal keratinocytes; type: cell-based; settings: Homo sapiens, Keratinocyte, 24 h, adult normal human keratinocytes, IL-17A 5 ng/mL, simple average if tested more than once
In short: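 Titrated compound plus recombinant human IL-17A (pre-incubated 1 h, rt) were applied to adult human keratinocytes at 5 ng/mL cytokine, 0.2% DMSO. Cultures ran 24 h at 37° C, and supernatant G-CSF was measured by HTRF to derive IC50.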

Sequence of UniProt Q16552 (Q16552 with tags, fused parts or gaps K93Q): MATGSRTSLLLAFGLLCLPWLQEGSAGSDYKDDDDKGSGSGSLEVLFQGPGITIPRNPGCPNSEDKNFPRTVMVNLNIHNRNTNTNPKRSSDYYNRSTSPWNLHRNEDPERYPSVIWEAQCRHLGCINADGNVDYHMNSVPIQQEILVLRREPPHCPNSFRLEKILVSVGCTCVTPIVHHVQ

Compound | pIC50 [1] | pIC50 [2]
N#CC12CC(Cn3nncc3C(=O)N[C@H](c3cn4ncc([C@H](NC(=O)CCC(F)(F)F)C5CC5)cc4n3)C3CCC(F)(F)CC3)(C1)C2 [Example 145, 1-((3-Cyanobicyclo[1.1.1]pentan-1-yl)methyl)-N—((S)-(7-((R)-cyclopropyl(4,4,4-trifluorobutanamido)methyl)imidazo[1,2-b]pyridazin-2-yl)(4,4-difluorocyclohexyl)methyl)-1H-1,2,3-triazole-5-carboxamide] | 6.19 | 6.52
N#CC12CC(Cn3ncc(C(=O)N[C@H](c4cn5ncc([C@H](NC(=O)CCC(F)(F)F)C6CC6)cc5n4)C4CCC(F)(F)CC4)n3)(C1)C2 [Example 146, 2-((3-Cyanobicyclo[1.1.1]pentan-1-yl)methyl)-N—((S)-(7-((R)-cyclopropyl(4,4,4-trifluorobutanamido)methyl)imidazo[1,2-b]pyridazin-2-yl)(4,4-difluorocyclohexyl)methyl)-2H-1,2,3-triazole-4-carboxamide] | 6.17 | 6.15
N#CC12CC(Cn3cc(C(=O)N[C@H](c4cn5ncc([C@H](NC(=O)CCC(F)(F)F)C6CC6)cc5n4)C4CCC(F)(F)CC4)nn3)(C1)C2 [Example 147, 1-((3-Cyanobicyclo[1.1.1]pentan-1-yl)methyl)-N—((S)-(7-((R)-cyclopropyl(4,4,4-trifluorobutanamido)methyl)imidazo[1,2-b]pyridazin-2-yl)(4,4-difluorocyclohexyl)methyl)-1H-1,2,3-triazole-4-carboxamide] | 5.77 | < 4.70
CC1(C(=O)N[C@H](c2cn3ncc([C@H](NC(=O)CCC(F)(F)F)C4CC4)cc3n2)C2CCC(F)(F)CC2)CC1(F)F (stereo partly drawn) [Example 148, N—((S)-(7-((R)-Cyclopropyl(4,4,4-trifluorobutanamido)methyl)imidazo[1,2-b]pyridazin-2-yl)(4,4-difluorocyclohexyl)methyl)-2,2-difluoro-1-methylcyclopropane-1-carboxamide] | 6.03 | 5.77
O=C(CCC(F)(F)F)N[C@@H](c1cnn2cc([C@@H](NC(=O)c3cncc(CCC(F)F)c3)C3CCC(F)(F)CC3)nc2c1)C1CC1 [Example 151, N—((S)-(7-((R)-Cyclopropyl(4,4,4-trifluorobutanamido)methyl)imidazo[1,2-b]pyridazin-2-yl)(4,4-difluorocyclohexyl)methyl)-5-(3,3-difluoropropyl)nicotinamide] | 7.17 | 6.70
O=C(CCC(F)(F)F)N[C@@H](c1cnn2cc([C@@H](NC(=O)c3cncc(CC(F)F)c3)C3CCC(F)(F)CC3)nc2c1)C1CC1 [Example 152, N—((S)-(7-((R)-Cyclopropyl(4,4,4-trifluorobutanamido)methyl)imidazo[1,2-b]pyridazin-2-yl)(4,4-difluorocyclohexyl)methyl)-5-(2,2-difluoroethyl)nicotinamide] | 7.49 | 6.74
Cc1nocc1C(=O)N[C@H](c1cn2ncc(C(C)NC(=O)CCC(F)(F)F)cc2n1)C1CCC(F)(F)CC1 (stereo partly drawn) [Example 153, N-((1S)-(4,4-Difluorocyclohexyl)(7-(1-(4,4,4-trifluorobutanamido)ethyl)imidazo[1,2-b]pyridazin-2-yl)methyl)-3-methylisoxazole-4-carboxamide] | 6.38 | 6.32
CCc1nonc1C(=O)N[C@H](c1cn2ncc([C@H](NC(=O)CCC(F)(F)F)C3CC3)cc2n1)C1CCC(F)(F)CC1 [Example 156, N—((S)-(7-((R)-Cyclopropyl(4,4,4-trifluorobutanamido)methyl)imidazo[1,2-b]pyridazin-2-yl)(4,4-difluorocyclohexyl)methyl)-4-ethyl-1,2,5-oxadiazole-3-carboxamide] | 7.89 | 7.22
Cc1nonc1C(=O)N[C@H](c1cn2ncc([C@H](NC(=O)CCC(F)(F)F)C3CC3)cc2n1)C1CCC(F)(F)CC1 [Example 157, N—((S)-(7-((R)-Cyclopropyl(4,4,4-trifluorobutanamido)methyl)imidazo[1,2-b]pyridazin-2-yl)(4,4-difluorocyclohexyl)methyl)-4-methyl-1,2,5-oxadiazole-3-carboxamide] | 7.44 | 6.82
Cc1conc1C(=O)N[C@H](c1cn2ncc([C@H](NC(=O)CCC(F)(F)F)C3CC3)cc2n1)C1CCC(F)(F)CC1 [Example 158, N—((S)-(7-((R)-Cyclopropyl(4,4,4-trifluorobutanamido)methyl)imidazo[1,2-b]pyridazin-2-yl)(4,4-difluorocyclohexyl)methyl)-4-methylisoxazole-3-carboxamide] | 7.32 | 6.68
Cc1oncc1C(=O)N[C@H](c1cn2ncc([C@H](NC(=O)CCC(F)(F)F)C3CC3)cc2n1)C1CCC(F)(F)CC1 [Example 159, N—((S)-(7-((R)-Cyclopropyl(4,4,4-trifluorobutanamido)methyl)imidazo[1,2-b]pyridazin-2-yl)(4,4-difluorocyclohexyl)methyl)-5-methylisoxazole-4-carboxamide] | 7.00 | 6.59
Cc1cnoc1C(=O)N[C@H](c1cn2ncc([C@H](NC(=O)CCC(F)(F)F)C3CC3)cc2n1)C1CCC(F)(F)CC1 [Example 160, N—((S)-(7-((R)-Cyclopropyl(4,4,4-trifluorobutanamido)methyl)imidazo[1,2-b]pyridazin-2-yl)(4,4-difluorocyclohexyl)methyl)-4-methylisoxazole-5-carboxamide] | 7.14 | 6.57
Cc1nscc1C(=O)N[C@H](c1cn2ncc([C@H](NC(=O)CCC(F)(F)F)C3CC3)cc2n1)C1CCC(F)(F)CC1 [Example 161, N—((S)-(7-((R)-Cyclopropyl(4,4,4-trifluorobutanamido)methyl)imidazo[1,2-b]pyridazin-2-yl)(4,4-difluorocyclohexyl)methyl)-3-methylisothiazole-4-carboxamide] | 7.21 | 6.51
CC(C)c1cc(C(=O)N[C@H](c2cn3ncc([C@H](NC(=O)CCC(F)(F)F)C4CC4)cc3n2)C2CCC(F)(F)CC2)ncn1 [Example 162, N—((S)-(7-((R)-Cyclopropyl(4,4,4-trifluorobutanamido)methyl)imidazo[1,2-b]pyridazin-2-yl)(4,4-difluorocyclohexyl)methyl)-6-isopropylpyrimidine-4-carboxamide] | 6.82 | 6.03
O=C(CCC(F)(F)F)N[C@@H](c1cnn2cc([C@@H](NC(=O)c3cccc(N4CCCC4=O)c3)C3CCC(F)(F)CC3)nc2c1)C1CC1 [Example 163, N—((S)-(7-((R)-Cyclopropyl(4,4,4-trifluorobutanamido)methyl)imidazo[1,2-b]pyridazin-2-yl)(4,4-difluorocyclohexyl)methyl)-3-(2-oxopyrrolidin-1-yl)benzamide] | 6.92 | 7.00
O=C(CCC(F)(F)F)N[C@@H](c1cnn2cc([C@@H](NC(=O)c3cccc(C4CC4(F)F)c3)C3CCC(F)(F)CC3)nc2c1)C1CC1 (stereo partly drawn) [Example 164, N—((S)-(7-((R)-Cyclopropyl(4,4,4-trifluorobutanamido)methyl)imidazo[1,2-b]pyridazin-2-yl)(4,4-difluorocyclohexyl)methyl)-3-(2,2-difluorocyclopropyl)benzamide] | 7.26 | 6.89
O=C(CCC(F)(F)F)N[C@@H](c1cnn2cc([C@@H](NC(=O)c3cc(F)cc(OC(F)F)c3)C3CCC(F)(F)CC3)nc2c1)C1CC1 [Example 165, N—((S)-(7-((R)-Cyclopropyl(4,4,4-trifluorobutanamido)methyl)imidazo[1,2-b]pyridazin-2-yl)(4,4-difluorocyclohexyl)methyl)-3-(difluoromethoxy)-5-fluorobenzamide] | 7.28 | 6.89
O=C(CCC(F)(F)F)N[C@@H](c1cnn2cc([C@@H](NC(=O)c3cccc(C4CC4)c3)C3CCC(F)(F)CC3)nc2c1)C1CC1 [Example 166, 3-Cyclopropyl-N—((S)-(7-((R)-cyclopropyl(4,4,4-trifluorobutanamido)methyl)imidazo[1,2-b]pyridazin-2-yl)(4,4-difluorocyclohexyl)methyl)benzamide] | 7.24 | 6.89
O=C(CCC(F)(F)F)N[C@@H](c1cnn2cc([C@@H](NC(=O)c3cccc(OC(F)F)c3)C3CCC(F)(F)CC3)nc2c1)C1CC1 [Example 167, N—((S)-(7-((R)-Cyclopropyl(4,4,4-trifluorobutanamido)methyl)imidazo[1,2-b]pyridazin-2-yl)(4,4-difluorocyclohexyl)methyl)-3-(difluoromethoxy)benzamide] | 7.43 | 6.80
O=C(CCC(F)(F)F)N[C@@H](c1cnn2cc([C@@H](NC(=O)c3cccc(OCC(F)F)c3)C3CCC(F)(F)CC3)nc2c1)C1CC1 [Example 168, N—((S)-(7-((R)-Cyclopropyl(4,4,4-trifluorobutanamido)methyl)imidazo[1,2-b]pyridazin-2-yl)(4,4-difluorocyclohexyl)methyl)-3-(2,2-difluoroethoxy)benzamide] | 7.42 | 6.72
O=C(CCC(F)(F)F)N[C@@H](c1cnn2cc([C@@H](NC(=O)c3cc(OC(F)F)ccc3F)C3CCC(F)(F)CC3)nc2c1)C1CC1 [Example 169, N—((S)-(7-((R)-Cyclopropyl(4,4,4-trifluorobutanamido)methyl)imidazo[1,2-b]pyridazin-2-yl)(4,4-difluorocyclohexyl)methyl)-5-(difluoromethoxy)-2-fluorobenzamide] | 7.43 | 6.70
